Laboratory results as given in ChEMBL document CHEMBL1132871, “Antimycobacterial activity of ionic fullerene derivatives” (Bioorg Med Chem Lett, 2000).

Tested on: Mycobacterium tuberculosis
Assay: The compound was tested for its ability to inhibit the growth of Mycobacterium tuberculosis strain H6/99; Resistant
Format: functional, organism-based

SMILES	MIC
CO[C@H]1/C=C/O[C@@]2(C)Oc3c(C)c(O)c4c(O)c(c(/C=N/N5CCN(C)CC5)c(O)c4c3C2=O)NC(=O)/C(C)=C\C=C\[C@H](C)[C@H](O)[C@@H](C)[C@@H](O)[C@@H](C)[C@H](OC(C)=O)[C@@H]1C	Resistant
NNC(=O)c1ccncc1	Resistant
